Measurements published in patent US20110130380A1, “Heteroaryl Kinase Inhibitors” (priority 2009, published 2011).

Molecular target: Cdk9/cyclinT1 (Homo sapiens, UniProt P50750)
Assay: Cdk9/cyclinT1 IMAP Protocol (fluorescence polarization kinase assay)
Details: ATP 6 uM
[1] = Cdk9_cyclinT1_IC50, Table V, generated using one of the two Cdk9/cyclinT1 assays (IMAP or Alpha Screen), not stated which
[2] = Cdk9_cyclinT1_IC50, generated using one of the two Cdk9/cyclinT1 assays (IMAP or Alpha Screen), not specified per value

Cdk9/cyclinT1, sequence (P50750 whole entry): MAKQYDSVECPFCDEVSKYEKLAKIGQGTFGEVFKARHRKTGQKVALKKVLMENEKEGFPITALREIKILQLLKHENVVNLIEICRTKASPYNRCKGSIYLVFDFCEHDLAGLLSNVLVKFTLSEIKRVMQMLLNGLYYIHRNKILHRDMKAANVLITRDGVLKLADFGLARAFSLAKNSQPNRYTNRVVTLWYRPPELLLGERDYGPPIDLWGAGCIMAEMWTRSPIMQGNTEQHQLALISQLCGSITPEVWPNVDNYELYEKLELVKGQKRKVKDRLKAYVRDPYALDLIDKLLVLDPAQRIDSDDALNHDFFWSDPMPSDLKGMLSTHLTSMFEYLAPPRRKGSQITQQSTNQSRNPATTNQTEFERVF
Cdk9/cyclinT1, sequence (O60563 whole entry partner): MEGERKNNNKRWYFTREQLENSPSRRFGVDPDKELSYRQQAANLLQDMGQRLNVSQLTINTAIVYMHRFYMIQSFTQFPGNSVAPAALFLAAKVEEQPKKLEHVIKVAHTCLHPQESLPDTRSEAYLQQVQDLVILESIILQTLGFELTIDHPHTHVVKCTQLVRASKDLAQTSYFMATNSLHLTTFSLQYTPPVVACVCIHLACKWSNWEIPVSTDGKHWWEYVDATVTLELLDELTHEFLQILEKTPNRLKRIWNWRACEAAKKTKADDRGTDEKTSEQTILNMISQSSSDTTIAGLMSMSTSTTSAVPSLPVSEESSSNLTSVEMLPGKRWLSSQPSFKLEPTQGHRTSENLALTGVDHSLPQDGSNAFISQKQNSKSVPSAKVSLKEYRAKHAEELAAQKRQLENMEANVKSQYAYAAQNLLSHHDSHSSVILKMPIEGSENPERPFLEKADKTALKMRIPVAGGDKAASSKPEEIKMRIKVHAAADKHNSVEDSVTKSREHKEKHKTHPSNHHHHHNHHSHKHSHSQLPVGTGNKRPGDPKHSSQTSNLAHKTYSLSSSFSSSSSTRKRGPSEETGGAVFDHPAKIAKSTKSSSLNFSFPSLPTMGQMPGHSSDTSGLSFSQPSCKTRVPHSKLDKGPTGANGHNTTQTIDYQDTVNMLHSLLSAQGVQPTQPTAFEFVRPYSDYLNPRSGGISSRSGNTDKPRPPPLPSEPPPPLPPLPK

Row | IC50 [1] [nM] | IC50 [2] [nM] | SMILES
1 | 8 | – | COC(=O)N1CCC[C@H](C(=O)Nc2cc(-c3cccc(NCC4CCOCC4)n3)c(Cl)cn2)C1 [Example 90, (S)-3-{5′-Chloro-6-[(tetrahydro-pyran-4-ylmethyl)-amino]-[2,4′]bipyridinyl-2′-ylcarbamoyl}-piperidine-1-carboxylic acid methyl ester]
2 | < 8 | – | CO[C@H]1CNC[C@@H]1C(=O)Nc1cc(-c2cccc(NCC3CCOC(C)(C)C3)n2)c(Cl)cn1 (stereo partly drawn) [Example 151, (3S,4R)-4-Methoxy-pyrrolidine-3-carboxylic acid {5′-chloro-6-[(2,2-dimethyl-tetrahydro-pyran-4-ylmethyl)-amino]-[2,4′]bipyridinyl-2′-yl}-amide]
3 | – | 627 | Cc1ccncc1-c1cc(NC(=O)[C@@H]2CCCNC2)ncc1Cl [Example 309, (R)-Piperidine-3-carboxylic acid (5′-chloro-4-methyl-[3,4′]bipyridinyl-2′-yl)-amide]
4 | 40 | – | CC(C)(C)C(=O)Nc1cc(-c2cccc(NCC3CCOCC3)n2)c(Cl)cn1 [Example 72, N-{5′-Chloro-6-[(tetrahydro-pyran-4-ylmethyl)-amino]-[2,4′]bipyridinyl-2′-yl}-2,2-dimethyl-propionamide]
5 | 3 | – | COC[C@@H]1CC[C@@H](C(=O)Nc2cc(-c3cccc(NCC4CCOCC4)n3)c(Cl)cn2)CN1 (racemic) [Example 221, (3R,6S)-/(3S,6R)-6-Methoxymethyl-piperidine-3-carboxylic acid {5′-chloro-6-[(tetrahydro-pyran-4-ylmethyl)-amino]-[2,4′]bipyridinyl-2′-yl}-amide]
6 | < 8 | – | O=C(Nc1cc(-c2cccc(NCc3ccc(F)cc3)n2)c(Cl)cn1)[C@@H]1CCCNC1 [Example 53, (R)-Piperidine-3-carboxylic acid [5′-chloro-6-(4-fluoro-benzylamino)-[2,4′]bipyridinyl-2′-yl]-amide]
7 | – | 4 | CC1(C)CC(CNc2cnc(Cl)c(-c3cc(NC(=O)[C@H]4CNCCO4)ncc3Cl)c2)CCO1 (stereo partly drawn) [Example 315, (R)-Morpholine-2-carboxylic acid {2,5′-dichloro-5-[(2,2-dimethyl-tetrahydro-pyran-4-ylmethyl)-amino]-[3,4′]bipyridinyl-2′-yl}-amide]
8 | 1 | – | C[C@@H]1CC(CNc2cccc(-c3cc(NC(=O)[C@@H]4CCNC4)ncc3Cl)n2)C[C@H](C)O1 (stereo partly drawn) [Example 170, (R)-Pyrrolidine-3-carboxylic acid {5′-chloro-6-[((2R,6S)-2,6-dimethyl-tetrahydro-pyran-4-ylmethyl)-amino]-[2,4′]bipyridinyl-2′-yl}-amide]
9 | 2 | – | C[C@@H]1CC[C@@H](C(=O)Nc2cc(-c3cccc(NCC4CCOCC4)n3)ccn2)CN1 (racemic) [Example 224, (3R,6R)-/(3S,6S)-6-Methyl-piperidine-3-carboxylic acid {6-[(tetrahydro-pyran-4-ylmethyl)-amino]-[2,4′]bipyridinyl-2′-yl}-amide]
10 | 1 | – | CC[C@H]1CC[C@@H](C(=O)Nc2cc(-c3ccc(F)c(NCC4CCOCC4)n3)c(Cl)cn2)CN1 (racemic) [Example 252, (3R,6S)-/(3S,6R)-6-Ethyl-piperidine-3-carboxylic acid {5′-chloro-5-fluoro-6-[(tetrahydro-pyran-4-ylmethyl)-amino]-[2,4′]bipyridinyl-2′-yl}-amide]
11 | < 8 | – | O=C(Nc1cc(-c2cccc(NCC3CCOCC3)n2)c(Cl)cn1)[C@H]1CNC[C@@H](C(F)(F)F)C1 (racemic) [Example 148, (3R,5S)-/(3S,5R)-5-Trifluoromethyl-piperidine-3-carboxylic acid {5′-chloro-6-[(tetrahydro-pyran-4-ylmethyl)-amino]-[2,4′]bipyridinyl-2′-yl}-amide]

Further lines, the molecule ahead of its results:

Row | SMILES | IC50 [1] [nM] | IC50 [2] [nM]
12 | O=C(Nc1cc(-c2nc(NCC3CCOCC3)ccc2Cl)c(F)cn1)[C@@H]1CCCNC1 [Example 123, (R)-Piperidine-3-carboxylic acid {3-chloro-5′-fluoro-6-[(tetrahydro-pyran-4-ylmethyl)-amino]-[2,4′]bipyridinyl-2′-yl}-amide] | < 8 | –
13 | CC(=O)N1CCC[C@H](C(=O)Nc2cc(-c3cccc(NCC4CCOCC4)n3)c(Cl)cn2)C1 [Example 89, (S)-1-Acetyl-piperidine-3-carboxylic acid {5′-chloro-6-[(tetrahydro-pyran-4-ylmethyl)-amino]-[2,4′]bipyridinyl-2′-yl}-amide] | < 8 | –
14 | C[C@@H]1CC[C@@H](C(=O)Nc2cc(-c3cccc(NC[C@@H]4CCOC(C)(C)C4)n3)ccn2)CN1 (mixture of isomers) [Example 226, (3R,6R)-/(3S,6S)-6-Methyl-piperidine-3-carboxylic acid {6-[((R)-2,2-dimethyl-tetrahydro-pyran-4-ylmethyl)-amino]-[2,4′]bipyridinyl-2′-yl}-amide] | 1 | –
15 | O=C(Nc1cc(-c2cccc(NCC3CCOCC3)n2)c(Cl)cn1)[C@H]1CN[C@@H](CF)C1 [Example 179, (3R,5R)-5-Fluoromethyl-pyrrolidine-3-carboxylic acid {5′-chloro-6-[(tetrahydro-pyran-4-ylmethyl)-amino]-[2,4′]bipyridinyl-2′-yl}-amide] | 7 | –
16 | O=C(Nc1cc(-c2cccc(NCC3CCOCC3)n2)c(Cl)cn1)C1CCOCC1 [Example 63, Tetrahydro-pyran-4-carboxylic acid {5′-chloro-6-[(tetrahydro-pyran-4-ylmethyl)-amino]-[2,4′]bipyridinyl-2′-yl}-amide] | 27 | –
17 | CC1(C)C[C@@H](CNc2cccc(-c3cc(NC(=O)[C@@H]4CCNC4)ncc3Cl)n2)CCO1 [Example 260, (R)-Pyrrolidine-3-carboxylic acid {5′-chloro-6-[((S)-2,2-dimethyl-tetrahydro-pyran-4-ylmethyl)-amino]-[2,4′]bipyridinyl-2′-yl}-amide] | 1 | –
18 | CC1(C(=O)Nc2cc(-c3cccc(NCC4CCOCC4)n3)c(Cl)cn2)CNCCO1 (centres unmarked) [Example 145, 2-Methyl-morpholine-2-carboxylic acid {5′-chloro-6-[(tetrahydro-pyran-4-ylmethyl)-amino]-[2,4′]bipyridinyl-2′-yl}-amide] | 785 | –
19 | CC1(C)CCC(C(=O)Nc2cc(-c3cccc(NCC4CCOCC4)n3)c(Cl)cn2)CN1 (centres unmarked) [Example 206, 6,6-Dimethyl-piperidine-3-carboxylic acid {5′-chloro-6-[(tetrahydro-pyran-4-ylmethyl)-amino]-[2,4′]bipyridinyl-2′-yl}-amide] | 1 | –
20 | O=C(Nc1cc(-c2cccc(NCc3cc(F)cc(F)c3)n2)c(Cl)cn1)[C@@H]1CCCNC1 [Example 80, (R)-Piperidine-3-carboxylic acid [5′-chloro-6-(3,5-difluoro-benzylamino)-[2,4′]bipyridinyl-2′-yl]-amide] | < 8 | –
21 | CC1(C)COC(CNc2nc(-c3cc(NC(=O)[C@@H]4CCCNC4)ncc3Cl)ccc2F)CO1 (stereo partly drawn) [Example 255, (R)-Piperidine-3-carboxylic acid {5′-chloro-6-[(5,5-dimethyl-[1,4]dioxan-2-ylmethyl)-amino]-5-fluoro-[2,4′]bipyridinyl-2′-yl}-amide] | 1 | –
22 | CO[C@H]1CNC[C@@H]1C(=O)Nc1cc(-c2ccc(F)c(NCC3CCOCC3)n2)c(Cl)cn1 [Example 144, (3S,4R)-4-Methoxy-pyrrolidine-3-carboxylic acid {5′-chloro-5-fluoro-6-[(tetrahydro-pyran-4-ylmethyl)-amino]-[2,4′]bipyridinyl-2′-yl}-amide] | 1 | –
23 | CC(C)CNc1cccc(-c2cc(NC(=O)[C@@H]3CCCNC3)ncc2Cl)n1 [Example 22, (R)-Piperidine-3-carboxylic acid (5′-chloro-6-isobutylamino-[2,4′]bipyridinyl-2′-yl)-amide] | 33 | –
24 | C[C@@H](Nc1cccc(-c2cc(NC(=O)[C@@H]3CCCNC3)ncc2Cl)n1)C1CCCCC1 [Example 76, (R)-Piperidine-3-carboxylic acid [5′-chloro-6-((R)-1-cyclohexyl-ethylamino)-[2,4′]bipyridinyl-2′-yl]-amide] | 15 | –
25 | C[C@@H]1CC[C@@H](C(=O)Nc2cc(-c3ccc(F)c(NCC4CCOCC4)n3)c(Cl)cn2)CN1C (single isomer, unassigned) [Example 196] | 17 | –
26 | CC[C@@H]1CC[C@@H](C(=O)Nc2cc(-c3cccc(NCC4CCOCC4)n3)c(Cl)cn2)CN1 (racemic) [Example 229, (3R,6R)-/(3S,6S)-6-Ethyl-piperidine-3-carboxylic acid {5′-chloro-6-[(tetrahydro-pyran-4-ylmethyl)-amino]-[2,4′]bipyridinyl-2′-yl}-amide] | 1 | –
27 | O=C(Nc1cc(-c2nc(NCC3CCOCC3)ccc2F)c(Cl)cn1)C1CNCCOC1 (single isomer, unassigned) [Example 222] | 25 | –
28 | O=C(Nc1cc(-c2cccc(NCc3cccc(F)c3)n2)c(Cl)cn1)[C@H]1CCCNC1 [Example 4, (S)-Piperidine-3-carboxylic acid [5′-chloro-6-(3-fluoro-benzylamino)-[2,4′]bipyridinyl-2′-yl]-amide] | 17 | –
29 | O=C(Nc1cc(-c2cccc(NCC3CCOCC3)n2)c(Cl)cn1)C1CNCCO1 (centres unmarked) [Example 13, Morpholine-2-carboxylic acid {5′-chloro-6-[(tetrahydro-pyran-4-ylmethyl)-amino]-[2,4′]bipyridinyl-2′-yl}-amide] | 16 | –
30 | O=C(Nc1cc(-c2nc(NCC3CCOCC3)ccc2Cl)c(Cl)cn1)[C@@H]1CCNC1 [Example 88, (R)-Pyrrolidine-3-carboxylic acid {3,5′-dichloro-6-[(tetrahydro-pyran-4-ylmethyl)-amino]-[2,4′]bipyridinyl-2′-yl}-amide] | < 8 | –
31 | C[C@H]1CC[C@H](C(=O)Nc2cc(-c3ccc(F)c(NCC4CCOCC4)n3)c(Cl)cn2)CN1C (single isomer, unassigned) [Example 197] | 4 | –
32 | CC1(C)COC[C@H](CNc2nc(-c3cc(NC(=O)[C@@H]4CCCNC4)ncc3Cl)ccc2F)O1 (single isomer, unassigned) [Example 262] | 3 | –
